Data on nine compounds can be found in PubChem BioAssay (NCI).

Each structure is given as a SMILES string. Where “and” joins values, the source holds several entries; their conditions need not be identical. Equal values may be shown once.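 Cells were grown in 96-well plates and exposed to each compound for 48 hours at five concentrations; endpoints were interpolated linearly between bracketing concentrations, or set to the highest concentration if not reached. GI50 marks 50% less growth. TGI: concentration producing complete growth inhibition.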

Test systems include SK-MEL-28 melanoma; 786-0 renal; KM12 colon; ACHN renal; SNB-75 CNS; OVCAR-4 ovarian; HCT-116 colon; EKVX NSCLC; CCRF-CEM leukemia.
Assay in all cases: growth of human tumour cells (NCI), 48 h

In the case of `CCOC(=O)C#Cc1c(CC(=O)OCC)nnn1[C@H]1O[C@@H](CO)[C@@H]2OC(C)(C)O[C@@H]21`, the GI50 with SK-MEL-28 melanoma was 3.33 µM; in the experiment on 786-0 renal, 6.58 µM; in the experiment on KM12 colon it was 16.4 µM; in the experiment on ACHN renal it was 1.97 µM; in the experiment on SNB-75 CNS it was 10.7 µM; with OVCAR-4 ovarian it was 2.11 µM. Also, the GI50 is 2.06 µM in the experiment with HCT-116 colon, 17.3 µM with EKVX NSCLC and 2.04 µM in the experiment on CCRF-CEM leukemia. Moreover, the TGI was found to be 11.4 µM in the experiment with SK-MEL-28 melanoma; 19.6 µM in the experiment on 786-0 renal; 32.7 µM with KM12 colon; 4.11 µM in the experiment on ACHN renal; 22.9 µM in the experiment with SNB-75 CNS; 5.43 µM in the experiment on OVCAR-4 ovarian. Besides, the TGI in the experiment on HCT-116 colon worked out at 4.1 µM; with EKVX NSCLC, 35.1 µM; in the experiment on CCRF-CEM leukemia it was 4.97 µM.

Regarding `Clc1nc(Cl)c(Cc2ccccc2)c(Cl)n1`, the TGI with SK-MEL-28 melanoma amounted to 26.6 µM; in the experiment on 786-0 renal it was 10.4 µM; in the experiment with KM12 colon, 66.3 µM; with ACHN renal it was 32 µM; with SNB-75 CNS, 22.5 µM; in the experiment on OVCAR-4 ovarian, 29.4 µM. Further, the TGI is 4.73 µM in the experiment with HCT-116 colon, 33.2 µM in the experiment with EKVX NSCLC and over 100 µM with CCRF-CEM leukemia.

Regarding `N#Cc1nc2cc(F)c(F)cc2nc1-c1ccc(Cl)cc1`, the GI50 in the experiment on SK-MEL-28 melanoma is 22 µM; in the experiment with 786-0 renal it was 16.3 µM; in the experiment with KM12 colon it was 51.9 µM; in the experiment on ACHN renal it was 10.4 µM; in the experiment with SNB-75 CNS it was 33.1 µM; in the experiment with OVCAR-4 ovarian, over 62 µM. Further, the results for the GI50 with HCT-116 colon, in the experiment on EKVX NSCLC and with CCRF-CEM leukemia were 10.7 µM, 10.4 µM and 0.181 µM, respectively. In addition, the TGI is over 100 µM with SK-MEL-28 melanoma; 43.9 µM in the experiment on 786-0 renal; over 100 µM in the experiment on KM12 colon; 43.8 µM in the experiment with ACHN renal; 83.1 µM in the experiment with SNB-75 CNS; over 100 µM in the experiment with OVCAR-4 ovarian. Further, the values for the TGI in the experiment with HCT-116 colon, in the experiment on EKVX NSCLC and in the experiment on CCRF-CEM leukemia were 29.2 µM, over 69.4 µM and 3.12 µM, respectively.

Regarding `O=C1CCCC1NC(=O)C(F)(F)F` (centres undefined), the TGI in the experiment on SK-MEL-28 melanoma, with 786-0 renal, in the experiment with KM12 colon, in the experiment on ACHN renal, with SNB-75 CNS and with OVCAR-4 ovarian was over 100 µM in each case. Further, the TGI in the experiment with HCT-116 colon, in the experiment on EKVX NSCLC and in the experiment with CCRF-CEM leukemia was over 100 µM in each case.

For `CCCCCCCCCCCC[n+]1ccc(C(N)=O)cc1`, the GI50 with SK-MEL-28 melanoma is 4.33 µM; with 786-0 renal, 3.33 µM; in the experiment with KM12 colon, 1.43 µM; in the experiment on ACHN renal, 6.06 µM; in the experiment with SNB-75 CNS, 2.08 µM; in the experiment on OVCAR-4 ovarian it was 4.73 µM. For the same compound, the results for the GI50 in the experiment on HCT-116 colon, in the experiment on EKVX NSCLC and in the experiment with CCRF-CEM leukemia were 4.58 µM, 2.55 µM and 3.61 µM, respectively. Moreover, the TGI in the experiment on SK-MEL-28 melanoma is 15 µM; with 786-0 renal, 12.7 µM; in the experiment on KM12 colon, 3 µM; with ACHN renal, 22 µM; in the experiment on SNB-75 CNS, 6.61 µM; in the experiment on OVCAR-4 ovarian it was 17.5 µM. In addition, the TGI in the experiment on HCT-116 colon is 20.5 µM; in the experiment with EKVX NSCLC, 12.8 µM; in the experiment on CCRF-CEM leukemia, over 100 µM.

As to `OCCNCCNc1c2ccccc2nc2oc3ccccc3c12`, the GI50 in the experiment on SK-MEL-28 melanoma is 12.1 µM; in the experiment with 786-0 renal it was 7.44 µM; with KM12 colon it was 8.31 µM; in the experiment with ACHN renal it was 5.82 µM; in the experiment on SNB-75 CNS, 13.2 µM; with OVCAR-4 ovarian, 10.2 µM. Besides, the GI50 with HCT-116 colon is 4.61 µM; in the experiment with EKVX NSCLC, 13 µM; in the experiment with CCRF-CEM leukemia it was 8.97 µM. For the same compound, the TGI in the experiment on SK-MEL-28 melanoma was 26.5 µM; with 786-0 renal, 22.2 µM; in the experiment with KM12 colon, over 100 µM; in the experiment on ACHN renal, 32.7 µM; in the experiment with SNB-75 CNS it was 27.1 µM; with OVCAR-4 ovarian it was 34.6 µM. Besides, the TGI in the experiment with HCT-116 colon was 16.2 µM; with EKVX NSCLC it was 46.1 µM; in the experiment with CCRF-CEM leukemia it was 41.9 µM.

Consider `CN(C)c1ccc(O)c2c1C[C@H]1C[C@H]3[C@H](N(C)C)C(=O)C(C(N)=O)=C(O)[C@@]3(O)C(=O)C1=C2O`, for which the GI50 in the experiment with SK-MEL-28 melanoma is 7.52 µM; with 786-0 renal, 4.45 µM; in the experiment on KM12 colon it was 6.29 µM; in the experiment with ACHN renal, 4.09 µM; in the experiment with SNB-75 CNS, 4.88 µM; in the experiment with OVCAR-4 ovarian, 7.53 µM. For the same compound, the GI50 in the experiment with HCT-116 colon is 3.86 µM; in the experiment on EKVX NSCLC, 6.7 µM; in the experiment with CCRF-CEM leukemia, 6.27 µM. The TGI in the experiment on SK-MEL-28 melanoma is 48.4 µM; in the experiment with 786-0 renal, 22.3 µM; in the experiment with KM12 colon it was 27.4 µM; in the experiment on ACHN renal, over 100 µM; with SNB-75 CNS it was 68.7 µM; in the experiment on OVCAR-4 ovarian, over 100 µM. The TGI in the experiment with HCT-116 colon was 35 µM; in the experiment on EKVX NSCLC, over 100 µM; with CCRF-CEM leukemia it was 65.9 µM.

As for `N#CC1=C(N)Oc2c(sc3c(F)cccc23)C1c1ccc(F)cc1` (centres undefined), the GI50 was 1.91 µM with SK-MEL-28 melanoma; 0.746 µM with 786-0 renal; 0.465 µM with KM12 colon; 0.752 µM in the experiment with ACHN renal; 0.338 µM in the experiment with SNB-75 CNS; 2.03 µM with OVCAR-4 ovarian. The values for the GI50 in the experiment on HCT-116 colon, in the experiment with EKVX NSCLC and in the experiment with CCRF-CEM leukemia were 0.492 µM, 3.24 µM and 0.47 µM, respectively. The TGI in the experiment with SK-MEL-28 melanoma worked out at 19.7 µM; in the experiment with 786-0 renal it was 11.7 µM; in the experiment on KM12 colon, 12.8 µM; in the experiment with ACHN renal it was 16.1 µM; in the experiment on SNB-75 CNS, 14.9 µM; in the experiment on OVCAR-4 ovarian, 16.6 µM. For the same compound, the TGI in the experiment on HCT-116 colon stood at 13 µM; in the experiment on EKVX NSCLC it was 20.2 µM; with CCRF-CEM leukemia it was 25.3 µM.

Take `CCCCCN(CCCCC)CC(O)c1cc2c(c3ccccc13)CCCC2` (centres undefined): the GI50 in the experiment with SK-MEL-28 melanoma is 12.1 µM; with 786-0 renal, 3.75 µM and 6.51 µM; in the experiment on KM12 colon, 3.34 µM and 6.95 µM; in the experiment on ACHN renal, 5.03 µM and 8.43 µM; with SNB-75 CNS it was 10.4 µM and 11.9 µM; with OVCAR-4 ovarian, 3.16 µM and 9.19 µM. Moreover, the GI50 was 2.7 µM and 2.24 µM in the experiment with HCT-116 colon; 4.92 µM in the experiment with EKVX NSCLC; 5.55 µM and 9.21 µM with CCRF-CEM leukemia. In addition, the TGI is 25.5 µM in the experiment on SK-MEL-28 melanoma; 13 µM and 19.1 µM in the experiment on 786-0 renal; 12.3 µM and 21.5 µM in the experiment on KM12 colon; 17.9 µM and 22.6 µM in the experiment with ACHN renal; 22.7 µM and 25.1 µM with SNB-75 CNS; 16 µM and 30.1 µM with OVCAR-4 ovarian. For the same compound, the TGI with HCT-116 colon was 12.8 µM and 13.1 µM; with EKVX NSCLC, 17.7 µM; in the experiment with CCRF-CEM leukemia it was 22.5 µM and 91.7 µM.
